Structures are written as SMILES.

This is an account of results in ChEMBL document CHEMBL3400016, “Isolation, synthesis and anti-hepatitis B virus evaluation of p-hydroxyacetophenone derivatives from Artemisia capillaris” (Bioorg Med Chem Lett, 2015).

A short description of data set [1]: Selectivity index, ratio of CC50 for human HepG2.2.15 cells to IC50 for decrease in hepatitis B viral DNA replication in human HepG2(2.2.15) cells. Type of data set: functional.
In data set [2] the test system is Hepatitis B virus. Nature of the data set: Antiviral activity against hepatitis B viral in human HepG2.2.15 cells assessed as […] antigen HBeAg secretion after 72 hrs by ELISA. It is filed as functional, organism-based. To be noted: HepG2 2.2.15, 72 h.
A short description of data set [3]: Selectivity index, ratio of CC50 for human HepG2.2.15 cells to IC50 for decrease in hepatitis B viral surface antigen HBsAg secretion in human HepG2(2.2.15) cells. It is filed as functional.
Data set [4] concerns Hepatitis B virus. As to the kind of experiment: Antiviral activity against hepatitis B viral in human HepG2.2.15 cells assessed as surface antigen HBsAg secretion after 72 hrs by ELISA. Type of data set: functional, organism-based. To be noted: HepG2 2.2.15, 72 h. A general note: In an ELISA, binding on a coated surface is turned into a signal by an enzyme label.
The test system of data set [5] is Hepatitis B virus. As to the kind of experiment: Antiviral activity against hepatitis B viral in human HepG2.2.15 cells assessed as decrease in viral DNA replication treated for 7 days by real time PCR analysis. It is filed as functional, organism-based. Conditions: HepG2 2.2.15, 168 h.
Data set [6] in a line: Selectivity index, ratio of CC50 for human HepG2.2.15 cells to IC50 for decrease in hepatitis B viral […] antigen HBeAg secretion in human HepG2(2.2.15) cells. Type of data set: functional.
The nature of data set [7]: Cytotoxicity against human HepG 2.2.15 cells by MTT assay. Type of data set: cell-based, HepG2 2.2.15. In general terms: Formazan colour is commonly taken as a measure of viable cells.

On to `CC(=O)c1ccc(O[C@@H]2O[C@H](COC(=O)/C=C/c3ccc(O)c(O)c3)[C@@H](O)[C@H](O)[C@H]2O)cc1`, for which the “Selectivity Index” value was over 197.9 in data set [1], 5.4 in data set [3] and 1.2 in data set [6]. Besides, the half-maximal inhibitory concentration (IC50) in data set [2] came out at 1280 µM; in data set [4], 291 µM; in data set [5], 8 µM. This compound also yielded a CC50 in data set [7] of 1580 µM.

On to `CC(=O)c1ccc(OC(=O)/C=C/c2cccc(F)c2)cc1`, for which the half-maximal inhibitory concentration (IC50) was 2210 µM in data set [2], 1520 µM in data set [4] and over 777 µM in data set [5]. The “Selectivity Index” value in data set [3] is recorded as over 2; in data set [6], over 1.4. The same compound registered a CC50 in data set [7] of over 3110 µM.

For `CC(=O)c1ccc(OC(=O)/C=C/c2ccc(F)cc2)cc1`, the IC50 in data set [2] is 1520 µM; in data set [4], 1510 µM; in data set [5], over 828 µM. Also, the “Selectivity Index” value in data set [3] and in data set [6] was over 2.2 throughout. The compound further yielded a half-maximal cytotoxic concentration (CC50) in data set [7] of over 3310 µM.

Turning to `CC(=O)c1ccc(O)cc1` [4-HYDROXYACETOPHENONE], the “Selectivity Index” value stood at 7.8 in data set [1], 3 in data set [3] and 1.3 in data set [6]. In addition, the IC50 in data set [2] was found to be 1850 µM; in data set [4], 786 µM; in data set [5], 306 µM. The midpoint of cytotoxicity in data set [7], the CC50, lay at 2390 µM.

As usually defined, the IC50 is the concentration that gives 50% inhibition. Usually CC50 stands for the concentration giving 50% cytotoxicity. Read a low CC50 as greater toxicity to the cells.
